Consider two compounds from publication PMC5694373 (European journal of pharmaceutical sciences : official …, 2017).

Test [1] relates to oseltamivir-resistant HK/09-H275Y influenza. The test is classed as cell-based, influenza A virus H1N1.
The target of test [2] is neuraminidase of oseltamivir-resistant pandemic 2009 H1N1 A/Hong Kong/2369/2009 [H275Y] (HK/09-H275Y) (Influenza A virus, UniProt C6KQ69). Kind of test: biochemical. It is filed as biochemical.
Test [3] has as its system mixture of 99% MX/09 and 1% oseltamivir-resistant HK/09-H275Y. The test is classed as cell-based, influenza A virus H1N1.
Test [4] addresses neuraminidase of zanamivir-resistant seasonal 2008 H1N1 A/Brazil/1633/2008 [Q136K] (BZ/08-Q136K) (Influenza A virus, UniProt A4GBY0, Q136K). It is filed as biochemical.
Test [5] relates to HK/09-H275Y subpopulation in 99% MX/09 + 1% HK/09-H275Y infection. The test is classed as cell-based, influenza A virus H1N1.

Several values for one entry are separate records, joined by “and”; a condition that tells them apart may be missing. Equal entries are not always repeated.

For orientation: IC50 means the midpoint of a concentration-inhibition curve. A lower IC50 goes with greater potency. Take `CC(=O)N[C@H]1[C@H]([C@H](O)[C@H](O)CO)OC(C(=O)O)=C[C@@H]1N=C(N)N` [Zanamivir, zanamivir]: the “reduction of peak viral titers” value in test [1] was “approximately 4 log10 PFU/ml”. In test [2], the concentration for half-maximal inhibition (IC50) was 7.22 pM. Further, in test [3], the “viral burden lower than the no-treatment control” value is listed as “at least 2 log10”.

For the compound Oseltamivir carboxylate, the figures for the “IC50 values (95% Confidence Interval)” value in test [4] and in test [2] were 0.0028 (0.0005 – 0.0051) ng/ml and 15.30 (10.16 – 20.44) ng/ml, respectively. Also, the HK/09-H275Y subpopulations in test [5] was 76% and 83%. Besides, the “effect on viral burden relative to no-treatment control” value in test [3] was “peak viral load equivalent to that of the no-treatment control by 72 h”.
